From patent publication US20100190845A1, “METHOD OF TREATING CANCER USING ATP SYNTHASE INHIBITORS” (NATIONAL TAIWAN UNIVERSITY, priority 2009, published 2010)
pIC50: −log10 of the molar value. “Also recorded” adds a separate entry of the source. Like-named read-outs stand apart in the source and are kept apart here.

How the values were obtained:
CL1-5 lung cancer cells = experiment: cells; format: cell-based, human; conditions: for pIC50: Homo sapiens
Description: (§1) Apart from the traditional role in ATP production, ATP synthase may play critical roles in tumor cell metastases. Human lung adenocarcinoma cell lines CL1-1 and CL1-5 with different metastasis were obtained from the American Type Culture Collection (Manassas, Va.), and human normal lung cell line IMR-90 was obtained from Institute of Biomedical Sciences, Academia Sinica. The CL1-5 cell line is highly metastatic lung cancer cells, but the CL1-1 cell line is low metastatic lung cancer cells.
(§2) Human lung adenocarcinoma cell lines were maintained in DMEM at 37° C. with 5% CO2 (Gibco, Carlsbad, Calif., USA), 5% fetal bovine serum (Gibco), 50 units/mL penicillin, and 50 μg/mL streptomycin (Gibco). IMR-90 cells were culture in DMEM (Gibco), 0.01 mg/mL Insulin, 5 μg/mL Hydrocortisone.
(§3) As shown in FIG. 9 to FIG. 11, cell proliferation assays were in the presence of three F1-targeting H-ATP synthase inhibitors: aurovertin B, resveratol, and piceatannol. […] Thus, aurovertin B caused significant apotosis in CL1-1 and CL1-5 cells.

CL1-1 lung cancer cells = experiment: cells; format: cell-based, human; conditions: for pIC50: Homo sapiens
Description: as §1, §2, §3

[1] = Viable cell number counting using trypan blue; format: cell-based; conditions: human; IMR-90 normal lung cells, same time points; read-out: cell viability rate
Description: as §1, §2, §3

[2] = test system: HeLa cervical cancer cells; conditions: Acta Biochimica Polonica 2004; cited from earlier work
[3] = test system: MDAMB231 breast cancer cell line; experiment: MTT assay, cell viability; format: cell-based; conditions: Homo sapiens, MDA-MB-231, MDAMB231, 48 hours
Description: as §2, with “breast cancer cell lines, MCF-7, MDA-MB231, T47D and human normal breast cell line MCF-10A, were obtained from the American Type Culture Collection (Manassas, Va.). Human breast cancer” for “lung adenocarcinoma”, “MCF-10A” for “IMR-90”
(§4) Cytotoxic effects on the growth and viability of cells were determined using MTT (3(4,5-dimethylthiazol-2-yl)-2,5-diphenyltetrazolium bromide, a tetrazole) assay. 10^4 cells/mL were plated in 96-well plates and allowed to attach for 24 hours. Cells were treated with […] of aurovertin B, resveratrol and piceatannol for 48 hours. At the end of the incubation period, MTT reagent (10 μL) was added to each 100 μL of culture. After incubation for 4 hr at 37° C., the formed water insoluble formazan dye was solubilized by adding 100 μL of DMSO to the culture wells. The plates were further incubated for 15 min at room temperature, and optical density (OD) of the wells was determined using ELISA microplate reader at a test wavelength of 570 nm. All experiments were performed in triplicates.

[4] = test system: T47D breast cancer cell line; experiment: MTT assay, cell viability; format: cell-based; conditions: Homo sapiens, 48 hours
Description: as §2, with “breast cancer cell lines, MCF-7, MDA-MB231, T47D and human normal breast cell line MCF-10A, were obtained from the American Type Culture Collection (Manassas, Va.). Human breast cancer” for “lung adenocarcinoma”, “MCF-10A” for “IMR-90”
as §4

MCF-7 cells [5] = experiment: DAPI staining of nuclear morphology; format: cell-based, human; conditions: MCF-7, 48 h, IC50 concentration
Description: After treatment for 48 h with DMSO (control) or aurovertin B (at their respective IC50 concentrations), cells were fixed in 4% paraformaldehyde for 15 min and stained with DAPI (2 μg/mL in PBS) for 15 min at 37° C. to detect apoptotic bodies (Sigma, St. Louis, Mo., USA). Results were determined by visual observation of nuclear morphology via fluorescence microscopy.

MCF-7 cells [6] = experiment: Annexin V-FITC/PI analysis of apoptosis; format: cell-based, human; conditions: MCF-7, 0.05-10 μM, 48 hours
Description: Flow cytometric analysis was performed to identify and quantify the apoptotic cells by using Annexin V-FITC/PI (propidium iodide) apoptosis detection kit (Santa Cruz Biotechnology, Santa Cruz, Calif., USA). […] After incubation, floating and adherent cells were harvested. Cells were washed carefully with cold PBS at 4° C. Cell pellets were resuspended in […] of binding buffer. Annexin-V FITC (0.2 μg/100 μL) and PI (10 μg/mL) was added to the cells and left for incubation in the dark for 15 min at room temperature. All data were acquired by flow cytometry using a FACSCanto cytometer (Becton Dickinson, San Jose, Calif., USA). The flow cytometric analysis was performed using FCS Express 3.0 (DeNovo software).

[7] = MTT assay, cell viability; format: cell-based, human; conditions: human; MCF-10A normal breast cells, same time points; read-out: cell viability rate
Description: as §2, with “breast cancer cell lines, MCF-7, MDA-MB231, T47D and human normal breast cell line MCF-10A, were obtained from the American Type Culture Collection (Manassas, Va.). Human breast cancer” for “lung adenocarcinoma”, “MCF-10A” for “IMR-90”
as §4

[8] = test system: MCF-7 breast cancer cells; experiment: MTT assay, cell viability; format: cell-based, human; conditions: MCF-7, 48 hours
Description: as §2, with “breast cancer cell lines, MCF-7, MDA-MB231, T47D and human normal breast cell line MCF-10A, were obtained from the American Type Culture Collection (Manassas, Va.). Human breast cancer” for “lung adenocarcinoma”, “MCF-10A” for “IMR-90”
as §4

[9] = test system: normal breast cell line MCF-10A; experiment: MTT assay, cell viability; format: cell-based, human; conditions: MCF-10A, under these concentrations
Description: as §2, with “breast cancer cell lines, MCF-7, MDA-MB231, T47D and human normal breast cell line MCF-10A, were obtained from the American Type Culture Collection (Manassas, Va.). Human breast cancer” for “lung adenocarcinoma”, “MCF-10A” for “IMR-90”
as §4

MCF-7 cells [10] = experiment: Cell cycle analysis by flow cytometry; format: cell-based, human; conditions: 48 hours (control 63.1%)
Description: For the determination of cell cycle phase distribution, 3×10^5 MCF-7 cells were first exposed to various concentrations of aurovertin B in DMEM with 10% FBS for 48 hr by flow cytometric analysis. The cells were trypsinized, collected and fixed in 70% cold ethanol (−20° C.) overnight. After washing twice with PBS, cells were resuspended in PBS. RNase A (1 mg/mL) and PI (10 μg/mL) were added to the fixed cells for 30 min. The DNA content of cells was then analyzed with a FACSCanto instrument (Becton Dickinson, San Jose, Calif., USA). The percentage of cells in different phases of the cell cycle was calculated by MultiCycle (DeNovo software, Ontario, Canada).

SMILES | pIC50 (CL1-5 lung cancer cells; CL1-5, highly metastatic lung cancer cells, read-out: IC50) | pIC50 (CL1-1 lung cancer cells; CL-11, CL1-1, low metastatic lung cancer cells, read-out: IC50) | viability [1] [%] | release of cytochrome c and apoptosis [2] | pIC50 [3] | pIC50 [4] | morphological changes of the nuclei (MCF-7 cells [5]) | pIC50 (CL1-5 lung cancer cells; CL1-5, CL1-5, highly metastatic lung cancer cells) | pIC50 (CL1-1 lung cancer cells; CL1-1) | early and late apoptotic/necrotic cells (MCF-7 cells [6]) | viability at 48 h [7] [%] | pIC50 ([8]; Homo sapiens, MCF7, 48 h) | pIC50 [8] | cytotoxicity to normal cells [9] | percentage of cells in G0/G1 phase (MCF-7 cells [10]; MCF-7, 0.1 μM) [%] | percentage of cells in G0/G1 phase (MCF-7 cells [10]; MCF-7, 1 μM) [%] | percentage of cells in G0/G1 phase (MCF-7 cells [10]; MCF-7, 5 μM) [%] | cell viability rate (CL1-5 lung cancer cells; CL1-5) [%] | cell viability rate (CL1-1 lung cancer cells; CL1-1) [%]
Oc1ccc(C=Cc2cc(O)cc(O)c2)cc1 [resveratrol] | ~5.30 | 5.00 | ≤ 60 |  |  |  |  |  |  |  |  |  |  |  |  |  |  |  | 
CC[C@H]1OC2(C)C(OC(C)=O)[C@@]1(C)OC(/C=C/C=C/C=C/c1oc(=O)cc(OC)c1C)[C@@H]2O (stereo partly drawn) [aurovertin B] |  |  | ≥ 60 | didn't affect the release of cytochrome c and apoptosis; also recorded: can't cause apotosis | 5.26 | 6.05 | condensation and shrinkage of nuclei | ~6.30 | 6.30 to 7.00 | dose-dependent increase in both early and late apoptotic/necrotic cells | ≥ 80 | 7.00 | 7.05 | no apparent cytotoxicity | 66.5 | 78.5 | 81.2 |  | 
Oc1cc(O)cc(/C=C/c2ccc(O)c(O)c2)c1 [piceatannol] |  |  | 60 |  |  |  |  |  |  |  |  |  |  |  |  |  |  | ≥ 80 | ≥ 80
